# Measured values from patent publication US7795261B2, “Substituted 1-piperidin-4-yl-4-pyrrolidin-3-yl-piperazine derivatives and their use as neurokinin antagonists” (Janssen Pharmaceutica NV, priority 2002, dated 2010).
# Tests used:
# Assay type in all cases: cell-based
# NK2 = biological target: T1, NK2 (Homo sapiens, UniProt P21452); experiment: Signal transduction (ST), intracellular Ca++ (FLIPR), NK2; settings: read-out: pIC50 NK2 (converted)
# T1 sequence (P21452 1-398): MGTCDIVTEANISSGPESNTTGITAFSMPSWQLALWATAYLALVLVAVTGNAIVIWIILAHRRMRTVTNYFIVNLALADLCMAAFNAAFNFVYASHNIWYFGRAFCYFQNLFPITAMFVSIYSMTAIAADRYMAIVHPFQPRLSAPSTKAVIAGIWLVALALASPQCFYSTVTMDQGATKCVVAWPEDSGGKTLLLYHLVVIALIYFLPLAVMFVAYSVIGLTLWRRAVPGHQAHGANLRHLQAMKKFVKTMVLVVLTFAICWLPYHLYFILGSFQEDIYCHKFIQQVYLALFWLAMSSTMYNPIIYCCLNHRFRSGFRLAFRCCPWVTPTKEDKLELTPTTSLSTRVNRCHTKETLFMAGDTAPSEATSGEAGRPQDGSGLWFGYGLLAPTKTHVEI
# Description: [The procedure below names another target; the source lists this target under the same test.] This test evaluates in vitro functional NK1 antagonistic activity. For the measurements of intracellular Ca^++ concentrations the cells were grown on 96-well (black wall/transparent bottom) plates from Costar for 2 days until they reached confluence. The cells were loaded with 2 μM Fluo3 in DMEM containing 0.1% BSA and 2.5 mM probenecid for 1 h at 37° C. They were washed 3× with a Krebs buffer (140 mM NaCl, 1 mM MgCl2×6H2O, 5 mM KCl, 10 mM glucose, 5 mM HEPES; 1.25 mM CaCl2; pH 7.4) containing 2.5 mM probenecid and 0.1% BSA (Ca^++-buffer). The cells were preincubated with a concentration range of antagonists for 20 min at RT and Ca^++-signals after addition of the agonists were measured in a Fluorescence Image Plate Reader (FLIPR from Molecular Devices, Crawley, England). The peak of the Ca^++-transient was considered as the relevant signal and the mean values of corresponding wells were analysed as described below.
# The sigmoidal dose response curves were analysed by computerised curve-fitting, using the GraphPad Program. […] For antagonist responses the IC50-value was calculated using non-linear regression.
# The last columns indicates—without being limited therefore—for which the compounds might be most suitable. Of course, since for some neurokinin receptors no data was determined, it is obvious that these compounds might be attributed to another suitable use.
# NK3 = biological target: T2, NK3 (Homo sapiens, UniProt P29371); experiment: Signal transduction (ST), intracellular Ca++ (FLIPR), NK3; settings: read-out: pIC50 NK3 (converted)
# T2 sequence (P29371 1-465): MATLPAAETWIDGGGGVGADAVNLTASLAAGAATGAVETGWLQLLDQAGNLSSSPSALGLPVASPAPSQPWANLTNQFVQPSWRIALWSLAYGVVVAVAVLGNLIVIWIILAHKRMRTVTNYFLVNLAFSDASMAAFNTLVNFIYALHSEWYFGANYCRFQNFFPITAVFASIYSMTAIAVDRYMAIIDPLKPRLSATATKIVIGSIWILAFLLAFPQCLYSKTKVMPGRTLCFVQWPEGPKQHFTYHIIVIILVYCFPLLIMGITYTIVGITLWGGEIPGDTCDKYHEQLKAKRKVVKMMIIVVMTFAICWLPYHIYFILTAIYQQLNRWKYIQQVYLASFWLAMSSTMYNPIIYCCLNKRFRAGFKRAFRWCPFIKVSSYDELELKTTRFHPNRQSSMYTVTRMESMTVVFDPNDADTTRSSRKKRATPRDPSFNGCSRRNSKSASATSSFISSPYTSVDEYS
# NK1 = NK1 (Homo sapiens, UniProt P25103); experiment: Signal transduction (ST), intracellular Ca++ (FLIPR), NK1 antagonistic activity; settings: read-out: pIC50 NK1 (converted)
# In short: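 Confluent cells loaded with 2 μM Fluo3 (1 h, 37 °C, probenecid), preincubated 20 min at RT with antagonist concentration range, then agonist added. Peak Ca++ transient read by FLIPR in Krebs buffer pH 7.4; IC50 by non-linear regression.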
# Chain of NK1 (P25103 whole entry): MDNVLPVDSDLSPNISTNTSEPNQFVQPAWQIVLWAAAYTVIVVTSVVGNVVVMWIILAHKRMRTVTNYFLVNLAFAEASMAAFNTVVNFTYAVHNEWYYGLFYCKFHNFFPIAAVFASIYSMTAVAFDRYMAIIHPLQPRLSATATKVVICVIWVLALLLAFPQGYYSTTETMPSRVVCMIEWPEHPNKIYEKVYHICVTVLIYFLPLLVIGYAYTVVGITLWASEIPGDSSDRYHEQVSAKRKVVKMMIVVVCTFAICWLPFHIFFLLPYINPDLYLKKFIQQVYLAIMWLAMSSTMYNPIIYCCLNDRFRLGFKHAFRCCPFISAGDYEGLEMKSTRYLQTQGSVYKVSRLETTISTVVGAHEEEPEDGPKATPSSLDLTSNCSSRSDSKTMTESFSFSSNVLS
Structure (SMILES),IC50 (NK2) [nM],IC50 (NK3) [nM],IC50 (NK1) [nM]
"O=C(c1ccsc1)N1CCC(N2CCN(C3CCN(C(=O)c4cc(C(F)(F)F)cc(C(F)(F)F)c4)C(Cc4ccc(F)c(F)c4)C3)CC2)C1 (single isomer, unassigned) [Compound 257]",316,631,10
"O=C(c1ccoc1)N1CCC(N2CCN(C3CCN(C(=O)c4cc(C(F)(F)F)cc(C(F)(F)F)c4)C(Cc4ccc(F)c(F)c4)C3)CC2)C1 (single isomer, unassigned) [Compound 258]",501,398,12.6
CC(C)(C)C(=O)N1CCCCC1C(=O)N1CCC(N2CCN([C@H]3CCN(C(=O)c4cc(C(F)(F)F)cc(C(F)(F)F)c4)[C@H](Cc4ccccc4)C3)CC2)C1 (some centres unmarked) [Compound 297],2510,1260,6.31
O=C(c1ccsc1)N1CC[C@H](N2CCN([C@@H]3CCN(C(=O)c4cc(C(F)(F)F)cc(C(F)(F)F)c4)[C@@H](Cc4ccc(Cl)c(Cl)c4)C3)CC2)C1 [Compound 251],6310,5010,50.1
O=C(c1cc(C(F)(F)F)cc(C(F)(F)F)c1)N1CC[C@H](N2CCN(C3CCN(S(=O)(=O)c4ccc(CCOCc5ccccc5)s4)C3)CC2)C[C@H]1Cc1ccccc1 (some centres unmarked) [Compound 336],1000,,158
O=C(c1cc(C(F)(F)F)cc(C(F)(F)F)c1)N1CC[C@H](N2CCN(C3CCN(S(=O)(=O)c4ccc(COCc5ccccc5)s4)C3)CC2)C[C@H]1Cc1ccccc1 (some centres unmarked) [Compound 345],501,,200
O=C(C1CCCCN1)N1CCC(N2CCN(C3CCN(C(=O)c4cc(C(F)(F)F)cc(C(F)(F)F)c4)C(Cc4ccccc4)C3)CC2)C1 (centres unmarked) [Compound 294],7940,,20
O=C(c1cc(C(F)(F)F)cc(C(F)(F)F)c1)N1CCC(N2CCN(C3CCN(S(=O)(=O)c4cc(CCOCc5ccccc5)cs4)C3)CC2)CC1Cc1ccccc1 (centres unmarked) [Compound 335],1000,,316
CC(C)N/C(=N\C#N)N1CCC(N2CCN(C3CCN(C(=O)c4cc(C(F)(F)F)cc(C(F)(F)F)c4)C(Cc4ccccc4)C3)CC2)C1 (centres unmarked) [Compound 344],3980,,20
O=C(c1cc(C(F)(F)F)cc(C(F)(F)F)c1)N1CC[C@H](N2CCN(C3CCN(S(=O)(=O)c4occc4CCOCc4ccccc4)C3)CC2)C[C@H]1Cc1ccccc1 (some centres unmarked) [Compound 410],1260,,50.1
O=C(c1cc(C(F)(F)F)cc(C(F)(F)F)c1)N1CC[C@H](N2CCN([C@@H]3CCNC3)CC2)C[C@H]1Cc1ccc(Cl)c(Cl)c1 [Compound 262],501,,6.31
O=C(C1CC1)N1CCC(N2CCN([C@@H]3CCN(C(=O)c4cc(C(F)(F)F)cc(C(F)(F)F)c4)[C@H](Cc4ccc(Cl)c(Cl)c4)C3)CC2)C1 (relative stereo) [Compound 143],,3160,39.8
"O=C(c1cc(C(F)(F)F)cc(C(F)(F)F)c1)N1CCC(N2CCN(C3CCN(S(=O)(=O)c4cccs4)C3)CC2)CC1Cc1ccc(F)c(F)c1 (single isomer, unassigned) [Compound 234]",,3160,10

# Other lines, results leading:
IC50 (NK2) [nM],IC50 (NK3) [nM],IC50 (NK1) [nM],Structure (SMILES)
1580,1260,63.1,O=C(OCc1ccccc1C(=O)N1CCC(N2CCN([C@H]3CCN(C(=O)c4cc(C(F)(F)F)cc(C(F)(F)F)c4)[C@H](Cc4ccccc4)C3)CC2)C1)c1ccccc1 (some centres unmarked) [Compound 346]
2000,,79.4,Cn1cc(C(=O)N2CCC(N3CCN([C@H]4CCN(C(=O)c5cc(C(F)(F)F)cc(C(F)(F)F)c5)[C@H](Cc5ccccc5)C4)CC3)C2)ccc1=O (some centres unmarked) [Compound 29]
2510,,20,COc1ccc(C(O)C(=O)N2CCC(N3CCN([C@H]4CCN(C(=O)c5cc(C(F)(F)F)cc(C(F)(F)F)c5)[C@H](Cc5ccccc5)C4)CC3)C2)cc1 (some centres unmarked) [Compound 333]
2510,,50.1,O=C(c1cccnc1)N1CCC(N2CCN([C@H]3CCN(C(=O)c4cc(C(F)(F)F)cc(C(F)(F)F)c4)[C@H](Cc4ccccc4)C3)CC2)C1 (some centres unmarked) [Compound 28]
,631,39.8,COCCC(=O)N1CC[C@@H](N2CCN([C@H]3CCN(C(=O)c4cc(C(F)(F)F)cc(C(F)(F)F)c4)[C@H](Cc4ccccc4)C3)CC2)C1 [Compound 414]
,3160,20,CC(C)(C)OCCC(=O)N1CCC(N2CCN(C3CCN(C(=O)c4cc(C(F)(F)F)cc(C(F)(F)F)c4)C(Cc4ccccc4)C3)CC2)C1 (centres unmarked) [Compound 391]
,1580,20,O=C([C@H]1CCCN1)N1CCC(N2CCN([C@H]3CCN(C(=O)c4cc(C(F)(F)F)cc(C(F)(F)F)c4)[C@H](Cc4ccccc4)C3)CC2)C1 (some centres unmarked) [Compound 213]
,3980,31.6,O=C(C(NCCO)c1ccccc1)N1CCC(N2CCN([C@H]3CCN(C(=O)c4cc(C(F)(F)F)cc(C(F)(F)F)c4)[C@H](Cc4ccccc4)C3)CC2)C1 (some centres unmarked) [Compound 106]
,501,7.94,"N#Cc1cccc(C(=O)N2CCC(N3CCN(C4CCN(C(=O)c5cc(C(F)(F)F)cc(C(F)(F)F)c5)C(Cc5ccccc5)C4)CC3)C2)c1 (single isomer, unassigned) [Compound 193]"
,2000,39.8,Cc1cc(C(=O)N2CCC(N3CCN([C@H]4CCN(C(=O)c5cc(C(F)(F)F)cc(C(F)(F)F)c5)[C@H](Cc5ccccc5)C4)CC3)C2)c(C)o1 (some centres unmarked) [Compound 37]
,398,7.94,CC(C)(C)CC(=O)N1CCC(N2CCN([C@H]3CCN(C(=O)c4cc(C(F)(F)F)cc(C(F)(F)F)c4)[C@H](Cc4ccccc4)C3)CC2)C1 (some centres unmarked) [Compound 200]
,501,20,O=C(C1CCCC1)N1CCC(N2CCN([C@H]3CCN(C(=O)c4cc(C(F)(F)F)cc(C(F)(F)F)c4)[C@H](Cc4ccccc4)C3)CC2)C1 (some centres unmarked) [Compound 74]
,1580,10,CC(C)C(=O)N1CCC(N2CCN([C@H]3CCN(C(=O)c4cc(C(F)(F)F)cc(C(F)(F)F)c4)[C@H](Cc4ccccc4)C3)CC2)C1 (some centres unmarked) [Compound 199]
,126,79.4,N#Cc1cccc(C(=O)N2CCC(N3CCN([C@H]4CCN(C(=O)c5cc(C(F)(F)F)cc(C(F)(F)F)c5)[C@H](Cc5ccccc5)C4)CC3)C2)c1 (some centres unmarked) [Compound 12]
,2510,25.1,COc1cccc(OC)c1C(=O)N1CCC(N2CCN([C@H]3CCN(C(=O)c4cc(C(F)(F)F)cc(C(F)(F)F)c4)[C@H](Cc4ccccc4)C3)CC2)C1 (some centres unmarked) [Compound 18]
,501,7.94,O=C(c1cccnc1Cl)N1CCC(N2CCN([C@H]3CCN(C(=O)c4cc(C(F)(F)F)cc(C(F)(F)F)c4)[C@H](Cc4ccccc4)C3)CC2)C1 (some centres unmarked) [Compound 168]
,251,25.1,O=C(c1cccs1)N1CCC(N2CCN([C@H]3CCN(C(=O)c4cc(C(F)(F)F)cc(C(F)(F)F)c4)[C@H](Cc4ccccc4)C3)CC2)C1 (some centres unmarked) [Compound 42]
,2510,15.8,O=C(Cn1cnc2ccccc21)N1CCC(N2CCN([C@H]3CCN(C(=O)c4cc(C(F)(F)F)cc(C(F)(F)F)c4)[C@H](Cc4ccccc4)C3)CC2)C1 (some centres unmarked) [Compound 208]
,6310,126,"O=C(c1ccoc1)N1CCC(N2CCN(C3CCN(C(=O)c4cc(C(F)(F)F)cc(C(F)(F)F)c4)C(Cc4ccccc4)C3)CC2)C1 (single isomer, unassigned) [Compound 138]"
,1580,6.31,O=C(c1snnc1CO)N1CCC(N2CCN(C3CCN(C(=O)c4cc(C(F)(F)F)cc(C(F)(F)F)c4)C(Cc4ccccc4)C3)CC2)C1 (centres unmarked) [Compound 166]
